How the values were obtained:
[1] = biological target: T1, HSV-1 helicase-primase (Human herpesvirus 1, UniProt P10189+P10236); assay: HSV-1 DNA-dependent ATPase assay (inhibition of HSV-1 helicase-primase); format: biochemical; conditions: Group 1 Table 1
T1 construct: made in house; host or cells: Sf21 insect cells triply infected with recombinant baculoviruses
Source text: A) HSV-1 DNA-Dependent ATP Assay (an in Vitro Assay Based on the Inhibition of HSV-1 Helicase-primase).
a) Preparation of enzyme: HSV-1 helicase-primase holoenzyme was produced in triply infected Sf21 cells using recombinant baculoviruses expressing the UL5, UL8 and UL52 helicase-primase subunits, as described by S. Dracheva et al., J. Biol. Chem. 1995, 270, 14148. The crude enzyme was purified by ammonium sulfate precipitation, Source 15Q® chromatography and Sephacryl® S-300 HR gel filtration (both purification systems can be obtained from Pharmacia Biotech Inc., Montreal, Quebec, Canada), see S. Dracheva et al., supra.
b) Assay: The DNA-dependent ATPase assay, described by J. J. Crute et al., Nucleic Acids Res. 1988, 16, 6585, was modified and used to evaluate the capability of the compounds of Group 1-formula 1 to inhibit HSV-1 helicase-primase activity. The reaction mixtures (80 μL each) contained 40 mM 4-(2-hydroxyethyl)-1-piperazineethanesulfonic acid (HEPES, pH 7.5), 10% (v/v) glycerol, 5.5 mM MgCl2, 1 mM DL-dithiothreitol (DTT), 50 μg/mL acetylated bovine serum albumin, 3.3% (v/v) DMSO, 4 mM ATP, 25 μM single-stranded M13 DNA hybridized to double-tailed 68-mer oligonucleotide and 3 μg/mL HSV-1 helicase-primase. After incubation for 20 min at 34°, formation of inorganic phosphate from hydrolysis of ATP was monitored spectrophotometrically at 650 nm using acidic ammonium molybdate/malachite green reagent, P. A. Lanzetta et al., Anal. Biochem. 1979, 100, 95. DNA-dependent ATPase activity was calculated from the net absorbance change in the presence and absence of inhibition.

[2] = system: HCMV (strain AD169); assay: Inhibition of HCMV replication, ELISA assay (Hs-68 cells, p28); format: cell-based, human cytomegalovirus; conditions: Human betaherpesvirus 5, AD169, Hs68; Group 1 Table 1; read-out: ELISA CMV EC50
Protocol: (§1) C) Inhibition of Human Cytomegalovirus (HCMV) replication
(§2) The effect of compounds on the replication of HCMV has been measured by using an ELISA-based assay (ELISA) and a plaque reduction assay (PRA).
(§3) Hs-68 cells (ATCC # CRL 1635) were seeded in 96 well microtiter plates at 10,000 cells/well in 100 μL of DMEM medium (Gibco Canada Inc.) supplemented with 10% fetal bovine serum (FBS, Gibco Canada Inc.). The plates were incubated for 3 days at 37° to allow the cells to reach 80-90% confluency prior to the assay.
The medium was removed from wells by aspiration. The cells then were infected at a multiplicity of infection (MOI) of 0.01 PFU/cell with 50 μL of HCMV (strain AD169, ATCC VR-538) in DMEM medium supplemented with 5% heat inactivated FBS (assay medium). The virus was allowed to adsorb to cells for 2 h at 37°. Following viral adsorption, the medium was removed from the wells by aspiration. The cells were washed twice with 200 μL of assay medium to remove unabsorbed virus. The cells were then incubated with or without 100 μL of appropriate concentrations of test reagent in assay medium. After 8 days of incubation at 37°, the extent of viral replication was determined by an ELISA assay which detects the late structural protein p28 of HCMV.
Eight days after infection, the medium was aspirated from the wells. Non-specific binding sites were blocked by adding 200 μL of phosphate buffered saline containing 1% (w/v) bovine serum albumin (blocking buffer) to each well and incubating the plates for 30 min at room temperature. After removal of the blocking buffer by aspiration, the cells were fixed with 100 μL of cold ethanol-acetone solution (95:5) per well. The plates were placed at −20° for 30 min. The plates were washed 4 times with phosphate buffered saline containing 0.05% (v/v) polyoxyethylene sorbitan monolaurate (Tween 20®). Thereafter, 100 μL of mAb UL99 (Advanced Biotechnologies Inc., #13-130-100) recognizing HCMV protein p28 was added to each wells and plates were incubated for 2 h at room temperature. The plates were washed four times with 200 μL of the above-noted phosphate buffered saline/Tween-20® solution. The cells were then incubated with 100 μL of sheep anti-mouse IgGγ horseradish peroxidase conjugated for 2 h at room temperature. The plates were then washed four times with 200 μL of above-noted phosphate buffered saline/Tween-20®solution. Thereafter, 100 μL of ortho phenylenediamine dihydrochloride (OPD, Gibco Canada Inc.) solution was added to each well and the plates were agitated on a microplate shaker for 30 min in the dark. Color development was monitored at 450 nm using a microplate spectrophotometer.
The SAS program was used to calculate the % inhibition of viral replication and to generate EC50 values.
The EC50 values obtained according to this assay method for certain thiazolylphenyl derivatives of this invention are listed in the following tables under the heading ELISA CMV.

[3] = system: HCMV (strain AD169); assay: Inhibition of HCMV replication, plaque reduction assay (PRA, Hs-68 cells); format: cell-based, human cytomegalovirus; conditions: Group 1 Table 1, read-out: PRA CMV EC50
Protocol: as §1, §2
as §3, with “( ATCC” for “(ATCC”, “12-well” for “96 well microtiter”, “83,000” for “10,000”, “1 mL” for “100 μL”
The medium was removed from the cells by aspiration. The cells were then infected with approximately 50 PFU of HCMV (strain AD169, ATCC VR-538) in DMEM medium supplemented with 5% inactivated FBS (assay medium). The virus was allowed to adsorb to cells for 2 h at 37°. Following viral adsorption, the medium was removed from the wells by aspiration. The cells were then incubated with or without 1 mL of appropriate concentrations of test reagent in assay medium. After 4 days of incubation at 37°, the medium was exchanged with fresh medium containing test compound and 4 days later the cells were fixed with 1% aqueous formaldehyde and stained with a 2% crystal violet solution in 20% ethanol in water. Microscopic plaques were counted using a stereomicroscope. Drug effects were calculated as a percent reduction in the number of plaques in the presence of each drug concentration compared to the number observed in the absence of drug. Ganciclovir was used as a positive control in all experiments.
The EC50 values obtained according to this assay for certain thiazolyl derivatives of this invention are listed in the following tables under the heading PRA CMV.

[4] = Human betaherpesvirus 5, AD169, Hs68

T1 sequence (P10189 whole entry): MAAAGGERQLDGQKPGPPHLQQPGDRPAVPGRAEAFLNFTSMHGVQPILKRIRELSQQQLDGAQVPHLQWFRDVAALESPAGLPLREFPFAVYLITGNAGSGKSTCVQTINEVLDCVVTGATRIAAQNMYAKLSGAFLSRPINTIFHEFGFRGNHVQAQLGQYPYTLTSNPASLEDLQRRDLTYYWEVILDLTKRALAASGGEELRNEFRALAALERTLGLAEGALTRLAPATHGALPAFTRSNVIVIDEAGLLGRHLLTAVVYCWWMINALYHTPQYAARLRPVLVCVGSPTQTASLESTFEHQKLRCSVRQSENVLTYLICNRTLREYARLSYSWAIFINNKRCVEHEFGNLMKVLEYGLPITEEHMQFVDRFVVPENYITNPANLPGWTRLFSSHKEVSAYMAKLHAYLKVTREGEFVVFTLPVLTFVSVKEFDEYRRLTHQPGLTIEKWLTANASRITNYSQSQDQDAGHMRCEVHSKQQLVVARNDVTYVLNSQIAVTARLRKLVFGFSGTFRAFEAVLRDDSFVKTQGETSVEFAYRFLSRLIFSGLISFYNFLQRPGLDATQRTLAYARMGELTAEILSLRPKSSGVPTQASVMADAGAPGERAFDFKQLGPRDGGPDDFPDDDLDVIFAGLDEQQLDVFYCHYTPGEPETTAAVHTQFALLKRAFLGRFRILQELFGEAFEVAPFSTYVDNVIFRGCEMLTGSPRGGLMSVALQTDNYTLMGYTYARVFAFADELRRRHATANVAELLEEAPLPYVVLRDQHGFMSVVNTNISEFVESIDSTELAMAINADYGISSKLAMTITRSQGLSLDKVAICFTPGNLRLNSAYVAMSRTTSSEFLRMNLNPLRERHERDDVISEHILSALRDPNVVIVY
T1 sequence (P10192 whole entry, further chain): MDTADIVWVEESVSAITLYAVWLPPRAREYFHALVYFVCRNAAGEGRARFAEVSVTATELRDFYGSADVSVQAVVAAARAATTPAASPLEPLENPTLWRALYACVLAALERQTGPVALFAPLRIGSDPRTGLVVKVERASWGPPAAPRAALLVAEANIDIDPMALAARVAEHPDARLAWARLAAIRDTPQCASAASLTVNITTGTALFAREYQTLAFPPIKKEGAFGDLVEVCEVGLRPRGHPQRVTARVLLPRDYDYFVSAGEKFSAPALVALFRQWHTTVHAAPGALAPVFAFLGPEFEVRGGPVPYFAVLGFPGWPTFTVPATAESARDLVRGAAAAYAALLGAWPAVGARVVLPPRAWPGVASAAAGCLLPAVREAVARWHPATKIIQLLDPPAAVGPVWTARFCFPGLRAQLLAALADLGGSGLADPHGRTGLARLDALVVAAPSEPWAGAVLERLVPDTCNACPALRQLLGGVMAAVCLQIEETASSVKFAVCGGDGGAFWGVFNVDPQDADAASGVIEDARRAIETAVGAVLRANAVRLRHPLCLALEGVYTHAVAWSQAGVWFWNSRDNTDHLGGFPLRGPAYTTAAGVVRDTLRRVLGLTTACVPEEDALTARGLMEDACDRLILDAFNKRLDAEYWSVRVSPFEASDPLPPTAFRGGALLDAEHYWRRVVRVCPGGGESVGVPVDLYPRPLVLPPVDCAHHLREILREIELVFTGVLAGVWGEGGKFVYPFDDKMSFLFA
T1 sequence (P10236 whole entry): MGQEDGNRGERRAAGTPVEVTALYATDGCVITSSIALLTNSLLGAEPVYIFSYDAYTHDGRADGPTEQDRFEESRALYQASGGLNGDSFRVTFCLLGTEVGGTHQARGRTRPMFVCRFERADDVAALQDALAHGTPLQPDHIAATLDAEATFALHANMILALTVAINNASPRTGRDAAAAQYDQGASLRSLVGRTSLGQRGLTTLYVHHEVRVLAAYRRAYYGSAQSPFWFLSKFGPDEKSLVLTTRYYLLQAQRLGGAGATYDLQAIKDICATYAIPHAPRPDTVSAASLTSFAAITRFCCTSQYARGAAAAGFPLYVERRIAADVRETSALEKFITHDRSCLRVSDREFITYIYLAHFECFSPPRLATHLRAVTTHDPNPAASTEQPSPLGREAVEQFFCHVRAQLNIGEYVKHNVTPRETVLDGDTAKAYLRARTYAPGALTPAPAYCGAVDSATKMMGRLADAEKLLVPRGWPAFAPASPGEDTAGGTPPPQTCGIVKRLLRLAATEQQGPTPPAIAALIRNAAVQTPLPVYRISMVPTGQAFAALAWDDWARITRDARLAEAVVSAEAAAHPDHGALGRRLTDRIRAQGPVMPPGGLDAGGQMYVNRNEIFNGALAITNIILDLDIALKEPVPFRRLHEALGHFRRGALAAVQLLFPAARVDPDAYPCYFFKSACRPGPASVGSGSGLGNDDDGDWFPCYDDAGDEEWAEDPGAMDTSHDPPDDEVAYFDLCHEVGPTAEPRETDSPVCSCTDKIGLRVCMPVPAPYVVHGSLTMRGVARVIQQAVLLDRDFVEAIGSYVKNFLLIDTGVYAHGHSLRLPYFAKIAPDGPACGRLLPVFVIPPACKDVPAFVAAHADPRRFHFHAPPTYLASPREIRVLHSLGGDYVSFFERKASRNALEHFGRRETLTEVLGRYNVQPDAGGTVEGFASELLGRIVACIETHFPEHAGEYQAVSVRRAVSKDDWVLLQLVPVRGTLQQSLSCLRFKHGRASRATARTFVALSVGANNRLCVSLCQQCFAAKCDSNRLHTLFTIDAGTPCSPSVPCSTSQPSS

Row | Structure (SMILES) | IC50 [1] | EC50 [2] | EC50 [3, 4] | other results
1 | CC(C)(C)OC(=O)N(CC(=O)Nc1ccc(-c2csc(N)n2)cc1)CC1CCCCC1 [Example 100] | 0.76 µM | 14 µM |  | 
2 | Nc1nc(-c2ccc(NC(=O)CNCC3CCCCC3)cc2)cs1 [Example 3, N-{4-(2-Amino-4-thiazolyl)phenyl}-2-{(cyclohexyl-methyl)amino}acetamide] |  |  |  | melting point: 164 to 166 °C
3 | CN(C(=O)N(CC(=O)Nc1ccc(-c2csc(N)n2)cc1)Cc1ccccc1)C(C)(C)C [Example 94] | 0.026 µM | > 8 µM | > 24 µM | 
4 | Nc1nc(-c2ccc(NC(=O)[C@H]3CCC(=O)N3Cc3ccccc3)cc2)cs1 [Example 12, N-{4-(2-Amino-4-thiazolyl)phenyl}-5-oxo-1-(phenylmethyl)-2(R)-pyrrolidinecarboxamide] |  |  |  | melting point: 245 to 246 °C
5 | Nc1nc(-c2ccc(NC(=O)CN(CCc3ccccc3)C(=O)C3CCCCC3)cc2)cs1 [Example 68] | 0.18 µM | > 5 µM |  | 
6 | CC(C)CN(CC(=O)Nc1ccc(-c2csc(N)n2)cc1)C(=O)OC(C)(C)C [Example 112] | 1.8 µM |  |  | 
7 | CC(C)(C)NC(=O)N(CC(=O)Nc1ccc(-c2csc(N)n2)cc1)Cc1ccccc1 [Example 92] | 0.076 µM | 0.9 µM | 65 µM | 
8 | C[C@@H](c1ccccc1)N(CC(=O)Nc1ccc(-c2csc(N)n2)cc1)C(=O)NC(C)(C)C [Example 105] | 0.7 µM | 11 µM |  | 
9 | NC(=O)N(Cc1ccc(F)cc1)c1ccc(-c2csc(N)n2)cc1 [Example 2, N-{4-(2-Amino-4-thiazolyl)phenyl}-N-{(4-fluorophenyl)methyl}urea] |  |  |  | melting point: 227 to 230 °C
10 | Nc1nc(-c2ccc(NC(=O)[C@@H]3CCCN3C(=O)c3ccccc3)cc2)cs1 [Example 14, N-{4-(2-Amino-4-thiazolyl)phenyl}1-benzoyl-2(S)-pyrrolidinecarboxamide] |  |  |  | melting point: 132 to 133 °C
11 | Nc1nc(-c2ccc(NC(=O)CN(Cc3ccccc3)C(=O)Cc3ccncc3)cc2)cs1 [Example 114] | 0.8 µM |  | 23 µM | 
12 | Nc1nc(-c2ccc(NC(=O)CN(Cc3ccc(Cl)cc3)C(=O)c3ccncc3)cc2)cs1 [Example 55] | 0.57 µM | 11.9 µM |  | 
13 | Nc1nc(-c2ccc(NC(=O)CN(Cc3ccccc3)C(=O)N3CCOCC3)cc2)cs1 [Example 6, N-{2-{{4-(2-Amino-4-thiazolyl)phenyl}amino}-2-oxoethyl}-N-(phenylmethyl)-4-morpholinecarboxamide] |  |  |  | melting point: 105 °C (dec.)
14 | CC(c1ccccc1)N(CC(=O)Nc1ccc(-c2csc(N)n2)cc1)C(=O)c1cccnc1 (stereo not shown) [Example 134] | 0.26 µM |  |  | EC50 [3]: 18 µM
15 | Nc1nc(-c2ccc(NC(=O)CN(Cc3ccccc3)S(=O)(=O)N3CCOCC3)cc2)cs1 [Example 96] | 0.29 µM | 0.35 µM | 12 µM | 
16 | Cc1ccccc1CN(CC(=O)Nc1ccc(-c2csc(N)n2)cc1)C(=O)c1ccncc1 [Example 102] | 0.19 µM | 11 µM | 18 µM | 
17 | CC(C)CN(CC(=O)Nc1ccc(-c2csc(N)n2)cc1)C(=O)C1CCCCC1 [Example 81] | 0.48 µM | 14 µM |  | 

Row | Structure (SMILES) | IC50 [1] | EC50 [2] | EC50 [3, 4] | other results
18 | CC(C)(C)OC(=O)N1CCC(C(=O)N(CC(=O)Nc2ccc(-c3csc(N)n3)cc2)CC2CCCCC2)CC1 [Example 61] | 4.4 µM |  |  | 
19 | C[C@@H](C1CCCCC1)N(CC(=O)Nc1ccc(-c2csc(N)n2)cc1)C(=O)OC(C)(C)C [Example 108] | 0.46 µM |  |  | 
20 | C[C@@H](c1ccccc1)N(CC(=O)Nc1ccc(-c2csc(N)n2)cc1)C(=O)Cc1ccccn1 [Example 135] | 0.78 µM |  | 38 µM | 
21 | Nc1nc(-c2ccc(NC(=O)CN(CC3CCCCC3)C(=O)C3CCNCC3)cc2)cs1 [Example 62] |  |  |  | inhibition of HSV-1 helicase-primase ([1]; at 50 μM): 29% inhi- bition at 50 μM
22 | CN1CCC(C(=O)N(CC(=O)Nc2ccc(-c3csc(N)n3)cc2)CC2CCCCC2)CC1 [Example 138] | > 50 µM | 31.6 µM |  | 
23 | Nc1nc(-c2ccc(NC(=O)CN(Cc3ccc(F)cc3)C(=O)C3CCCCC3)cc2)cs1 [Example 83] | 0.042 µM | 8.1 µM |  | 
24 | Nc1nc(-c2ccc(NC(=O)CN(Cc3ccccc3)C(=O)N3CCOCC3)cc2)cs1 [Example 95] | 0.14 µM | 57 µM | 90 µM | 
25 | Nc1nc(-c2ccc(NC(=O)CN(CC3CCCCC3)C(=O)c3ccncc3)cc2)cs1 [Example 57] | 3.9 µM | 2.6 µM | 15.8 µM | 
26 | [N-]=[N+]=Nc1ccc(C(=O)N(CC(=O)Nc2ccc(-c3csc(N)n3)cc2)Cc2ccncc2)cc1 [Example 78] | 1 µM |  |  | 
27 | Nc1nc(-c2ccc(NC(=O)CN(Cc3ccc(Cl)cc3)C(=O)CC3CCCCC3)cc2)cs1 [Example 69] | 0.43 µM |  | 8 µM | 
28 | Nc1nc(-c2ccc(NC(=O)CN(CC3CCCCC3)C(=O)CC3CCCC3)cc2)cs1 [Example 75] | 0.21 µM | 48 µM |  | 
29 | CC(c1ccccc1)N(CC(=O)Nc1ccc(-c2csc(N)n2)cc1)C(=O)Cc1ccccn1 (stereo not shown) [Example 136] | 4.2 µM |  |  | EC50 [3]: 31 µM
30 | Cc1cccc(C)c1OCC(=O)N(CC(=O)Nc1ccc(-c2csc(N)n2)cc1)Cc1ccccc1 [Example 121] | 0.49 µM |  |  | EC50 [3]: > 31 µM
31 | CC(C)COC(=O)N(CC(=O)Nc1ccc(-c2csc(N)n2)cc1)Cc1ccccc1 [Example 86] | 0.17 µM | 3.8 µM | 24 µM | 
32 | Cc1cc(C)nc(SCC(=O)N(CC(=O)Nc2ccc(-c3csc(N)n3)cc2)Cc2ccccc2)n1 [Example 122] |  |  |  | EC50 [3]: 3.3 µM
33 | CC(c1ccccc1)N(CC(=O)Nc1ccc(-c2csc(N)n2)cc1)C(=O)c1ccncc1 (stereo not shown) [Example 137] | 0.98 µM |  |  | EC50 [3]: 49 µM
34 | Nc1nc(-c2ccc(NC(=O)CN(Cc3ccccc3F)C(=O)c3ccncc3)cc2)cs1 [Example 118] | 0.047 µM |  | 60 µM | 
